According to US20240109883A1, “Anti-Tumor Compositions and Methods” (priority 2020, published 2024):
pIC50: −log10 of the molar value.

Key:
Format in all cases: cell-based
MCF7 cells = test: MCF7 Cell Growth Inhibition Assay; details: Homo sapiens, 24 h, 10% serum, DAPI cell count, 4-pt dilution from 10 μM
Method: MCF7 cells were seeded in 96-well plates at 10% confluence 24 h prior to treatment. Compound was added to cells in full growth media containing 10% serum, using a 2-fold, 4-pt dilution scheme beginning from 10 μM (10, 5, 2.5, 1.25 μM). Plates were incubated for 24 h. After treatment, cells were washed, fixed with 4% PFA and stained with DAPI. Plates were imaged using a Cytation 3 plate reader and nuclear DAPI staining was used to quantify cell number. % Growth relative to vehicle-treated (DMSO) control wells was plotted using Excel (See FIGS. 1-8). IC50s were calculated by fitting the data points to the following standard equation:
Growth=1−[Cmpd]^n/(IC50^n+[Cmpd]^n)
where [Cmpd] is the molar concentration of compound, the IC50 is the concentration where half-maximal effect is seen, and n is the Hill coefficient.

MRC5 4d Toxicity Assay = details: human, confluent MRC5 cells, DAPI cell count, read-out: MRC5 4 d Tox: CC50
Method: MRC5 cells were seeded in 96-well plates 1-2 days prior to treatment to ensure 100% confluence. On the day of treatment, cells were washed once and growth media was replaced. Compound (in DMSO) was added to cells using the following dilution scheme: 25, 12.5, 4.16, 1.4, 0.46, 0.15, 0.05 μM. Test concentrations were assayed in duplicate and included 0 μM (DMSO) control wells. Plates were incubated for 4 days. After treatment, cells were washed, fixed with 4% PFA and stained with DAPI. Plates were imaged using a Cytation 3 plate reader and nuclear DAPI staining was used to quantify cell survival. Dose-response plots were generated using CDD Vault to calculate CC50s.

cMYC = cMYC Degradation Assay (MDA-MB-231 cells, western blot); details: 72 hours
Method: MDA-MB-231 cells were seeded in 6-well format in complete growth media containing 10% serum and incubated for 48 h to ensure 100% confluence. Compound was added to cells at 5 μM and 10 μM final concentrations for a treatment period of 72 hours. Cells were harvested in ice-cold IP buffer and lysates were cleared by centrifugation. Total protein concentration was determined for each sample by Bradford assay. Proteins were separated by 10% SDS-PAGE and blotted onto PVDF membranes. Membranes were blocked with CosmoBio PDVF blocking reagent for 1 hour, followed by overnight incubation with cMYC primary antibody (Abcam) at 4 C. After several washes, the membanes were probed with secondary antibody for 1 hour at room temperature. Fluorescent signal was acquired using an Odyssey CLx (LI-COR) and quantified using ImageJ software.

[1] = test system: human cytomegalovirus (HCMV); test: Antiviral activity against human cytomegalovirus (HCMV) in MRC5 cells; details: for pIC50 / IC90: Human betaherpesvirus 5, 168 h, MRC5 cells, MOI 0.01 IU per cell, 7 days post infection, mCherry positive cells; for Selectivity Index: SI50: MRC5 TOX 7 d CC50 relative to HCMV IC50
Method: To assess their antiviral activity, some compounds were tested against human cytomegalovirus (HCMV) in vitro. Human MRC5 cells were grown to confluency (˜1.0×10^4 cells/well) in 96-well plate format in Dulbecco's Modified Eagle Medium (DMEM) supplemented with 10% fetal bovine serum (FBS) 2 mM L-glutamine, 0.1 mM non-essential amino acids, 10 mM HEPES, and 100 U/ml each of penicillin and streptomycin and infected with an HCMV variant expressing mCherry tagged pUL99 (the product of late viral UL99 gene) at a multiplicity of 0.01 infectious unit (IU) per cell. Assays were performed in triplicate. One hour later, medium of the cells was replaced with fresh medium containing the indicated compounds at 25, 12.5, 6.25, 3.13, 1.56, 0.78, 0.39 μM or the carrier in which the compounds are dissolved (DMSO). Final concentration of DMSO was 0.5% in each treatment. Virus yield in the culture was determined at 7 days post infection by quantification of fluorescent (mCherry positive) cells in each well by fluorescent microscopy. Results were plotted using CDD Vault (CDD Vault was developed by Collaborative Drug Discovery, Inc., 1633 Bayshore Hwy, Suite 342, Burlingame, CA 94010) in order to calculate IC50s and IC90s.

MRC5 TOX 7 d = details: human

| Compound | GI50 (MCF7 cells) | CC50 at 4 days (MRC5 4d Toxicity Assay) | MDA-MB-231 cMYC: Fold Decrease in Low MW Band at 5 μM (cMYC) | MDA-MB-231 cMYC: Fold Increase in High MW Band at 5 μM (cMYC) | MDA-MB-231 cMYC: Fold Decrease in Low MW Band at 10 μM (cMYC) | MDA-MB-231 cMYC: Fold Increase in High MW Band at 10 μM (cMYC) | MDA-MB-231 cMYC qualitative degredation (cMYC) | pIC50 [1] | IC90 [1] | Selectivity Index: SI50 [1] | CC50 at 7 d (MRC5 TOX 7 d) |
| --- | --- | --- | --- | --- | --- | --- | --- | --- | --- | --- | --- |
| NC(=O)Nc1ccc2c(c1)CN(c1ncc(Cc3ccc(-c4ncccn4)cc3)s1)CC2 [Example 001] | 31.7 µM | > 25 µM | 0.98 fold | 0.84 fold | 1.2 fold | 1.7 fold | no degradation | 5.84 | 8.72 µM | >7.1 | > 10.4 µM |
| NC(=O)Nc1ccc2c(c1)CN(c1ncc(Cc3ccc(N4CCS(=O)(=O)CC4)cc3)s1)CC2 [Example 002] |  |  |  |  |  |  |  | 5.59 | 7.58 µM | >19.3 | > 50 µM |
| NC(=O)Nc1ccc2c(c1)CN(c1ncc(Cc3ccc(N4CCOC4=O)cc3)s1)CC2 [Example 003] | 17.5 µM | > 25 µM |  |  |  |  |  | 5.24 | > 6.77 µM | >1.2 | > 6.77 µM |
| CS(=O)(=O)c1ccc(Cc2cnc(N3CCc4ccc(NC(N)=O)cc4C3)s2)cc1 [Example 004] | 142 µM | > 25 µM |  |  |  |  |  | 5.25 | > 25 µM | >2.8 | > 15.8 µM |
| NC(=O)Nc1ccc2c(c1)CN(c1ncc(Cc3ccc(N4CCOCC4)cc3)s1)CC2 [Example 005] |  |  |  |  |  |  |  | 5.84 | 2.92 µM | >7.3 | > 10.4 µM |
| CN1CC(Oc2ccc(Cc3cnc(N4CCc5ccc(NC(N)=O)cc5C4)s3)cc2)C1 [Example 006] |  |  |  |  |  |  |  | 5.47 | > 50 µM | 12.9 | 43.4 µM |
| NC(=O)Nc1ccc2c(c1)CN(c1ncc(Cc3ccc(-c4ccco4)cc3)s1)CC2 [Example 007] |  |  | 0.63 fold | 0.9 fold | 0.8 fold | 1.3 fold | no degradation | 5.93 | > 2.89 µM | >2.4 | > 2.89 µM |
| CCOc1ccc(Cc2cnc(N3CCc4ccc(N(C)C(N)=O)cc4C3)s2)cc1 [Example 009] |  |  |  |  |  |  |  | 5.69 | 7.43 µM | >24.4 | > 50 µM |
| CN(C(N)=O)c1ccc2c(c1)CN(c1ncc(Cc3ccc(OCC4CC4)cc3)s1)CC2 [Example 010] |  |  |  |  |  |  |  | 5.61 | 7.97 µM | 6.9 | 16.9 µM |
| CN(C(N)=O)c1ccc2c(c1)CN(c1ncc(Cc3ccc(-c4ncccn4)cc3)s1)CC2 [Example 011] |  |  | 0.31 fold | 1.53 fold | 0.5 fold | 2.6 fold | partial | 5.83 | > 10.4 µM | >7.0 | > 10.4 µM |
| CN(C(N)=O)c1ccc2c(c1)CN(c1ncc(Cc3ccc(N4CCOCC4)cc3)s1)CC2 [Example 012] |  |  |  |  |  |  |  | 5.67 | > 4.24 µM | >23.5 | > 50 µM |
| CNC(=O)N(C)c1ccc2c(c1)CN(c1nnc(Cc3ccc(-n4cccn4)cc3)s1)CC2 [Example 013] |  |  |  |  |  |  |  | 5.37 | 9.25 µM | >11.7 | > 50 µM |
| CNC(=O)N(C)c1ccc2c(c1)CN(c1noc(Cc3ccc(-n4cccn4)cc3)n1)CC2 [Example 015] |  |  |  |  |  |  |  | 5.60 | 5.59 µM | 17.7 | 44.4 µM |
| NC(=O)Nc1cnc2c(c1)CN(c1ncc(Cc3ccc(-n4cccn4)cc3)s1)CC2 [Example 016] |  |  |  |  |  |  |  | 5.28 | > 6.77 µM | >3.0 | > 15.8 µM |
| CCOc1ccc(Cc2cnc(N3CCc4ncc(NC(N)=O)cc4C3)s2)cc1 [Example 017] |  |  |  |  |  |  |  | 5.19 | 47.5 µM | 7.3 | 47.3 µM |
| NC(=O)Nc1cnc2c(c1)CN(c1ncc(Cc3ccc(N4CCOCC4)cc3)s1)CC2 [Example 018] |  |  |  |  |  |  |  | 4.79 | 17.7 µM | >3.1 | > 50 µM |
| NC(=O)Nc1ccc2c(c1)CN(c1ncc(Cc3ccc(-n4cccn4)cc3)s1)CC2 [Example 019] | 11 µM | > 25 µM | 0.62 fold | 1.18 fold | 0.9 fold | 3.2 fold | partial | 6.10 | > 6.61 µM | >8.6 | > 6.77 µM |
| CN(C(N)=O)c1ccc2c(c1)CN(c1ncc(Cc3ccc(-n4cccn4)cc3)s1)CC2 [Example 020] | 2.3 µM | > 25 µM |  |  |  |  |  | 5.91 | 4.7 µM | 2.9 | 3.63 µM |
| CNC(=O)Nc1ccc2c(c1)CN(c1ncc(Cc3ccc(-n4cccn4)cc3)s1)CC2 [Example 021] | 18.3 µM | > 25 µM |  |  |  |  |  | 5.93 | > 4.43 µM | >2.5 | > 2.89 µM |
| CN(C)C(=O)Nc1ccc2c(c1)CN(c1ncc(Cc3ccc(-n4cccn4)cc3)s1)CC2 [Example 022] | 18.3 µM | > 25 µM |  |  |  |  |  | 6.27 | > 4.43 µM | >8.3 | > 4.43 µM |
| CNC(=O)N(C)c1ccc2c(c1)CN(c1ncc(Cc3ccc(-n4cccn4)cc3)s1)CC2 [Example 023] | 1.2 µM | > 25 µM | 0.04 fold | 0.22 fold | 0.0 fold | 0.2 fold | total | 6.06 | 2.9 µM | >15.5 | > 13.6 µM |
| CN(C)C(=O)N(C)c1ccc2c(c1)CN(c1ncc(Cc3ccc(-n4cccn4)cc3)s1)CC2 [Example 024] | 1.8 µM | > 25 µM |  |  |  |  |  | 5.94 | 5.31 µM | 18.7 | 21.4 µM |
